Experimental data published in ChEMBL document CHEMBL1156216, “Amide-based inhibitors of p38alpha MAP kinase. Part 2: design, synthesis and SAR of potent N-pyrimidyl amides” (Bioorg Med Chem Lett, 2010).

Legend:
[1] = system: Blood; test: Antiinflammatory activity against LPS-induced TNFalpha production in human diluted whole blood administered 15 mins before LPS treatment after 2 hrs by ELISA; assay type: functional, tissue-based
[2] = target: Mitogen-activated protein kinase 14 (Homo sapiens, UniProt Q16539); test: Inhibition of human p38alpha assessed as gamma-[32P]ATP incorporation after 60 mins by scintillation counting
Chain of Mitogen-activated protein kinase 14 (Q16539 whole entry): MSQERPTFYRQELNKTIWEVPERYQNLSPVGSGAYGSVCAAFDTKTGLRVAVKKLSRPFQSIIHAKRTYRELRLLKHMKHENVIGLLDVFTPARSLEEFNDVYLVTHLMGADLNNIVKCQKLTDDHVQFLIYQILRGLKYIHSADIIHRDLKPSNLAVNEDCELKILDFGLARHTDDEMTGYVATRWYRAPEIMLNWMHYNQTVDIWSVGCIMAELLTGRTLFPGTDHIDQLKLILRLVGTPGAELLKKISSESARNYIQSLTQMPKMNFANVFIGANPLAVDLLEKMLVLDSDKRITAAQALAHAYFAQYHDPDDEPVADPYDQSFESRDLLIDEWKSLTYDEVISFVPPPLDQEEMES

[3] = target: Cytochrome P450 3A4 (Homo sapiens, UniProt P08684); test: Inhibition of CYP3A4 after 30 mins by fluorescence assay; assay type: ADME; details: read-out: INH
Chain of Cytochrome P450 3A4 (P08684 whole entry): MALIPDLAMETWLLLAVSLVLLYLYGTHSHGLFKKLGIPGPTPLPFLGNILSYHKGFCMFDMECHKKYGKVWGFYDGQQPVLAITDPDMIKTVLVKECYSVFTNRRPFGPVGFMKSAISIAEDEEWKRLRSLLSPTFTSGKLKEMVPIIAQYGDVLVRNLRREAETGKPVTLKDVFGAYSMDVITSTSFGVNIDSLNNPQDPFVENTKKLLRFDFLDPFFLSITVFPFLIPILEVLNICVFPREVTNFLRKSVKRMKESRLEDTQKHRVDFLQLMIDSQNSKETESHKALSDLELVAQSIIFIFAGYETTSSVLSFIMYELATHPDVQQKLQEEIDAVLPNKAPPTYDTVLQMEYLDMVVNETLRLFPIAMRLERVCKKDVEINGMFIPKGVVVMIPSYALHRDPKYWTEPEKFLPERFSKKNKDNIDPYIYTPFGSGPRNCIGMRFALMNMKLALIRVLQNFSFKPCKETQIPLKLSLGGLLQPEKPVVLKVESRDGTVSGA

Row | SMILES | IC50 [1] [nM] | IC50 [2] [nM] | IC50 [3] [nM]
1 | CCN(C(=O)c1ccc2c(c1)CCCC2)c1ccnc(N[C@@H](C)c2ccccc2)n1 | > 1000 | 180 | 
2 | C[C@H](Nc1nccc(N(CC2CCOCC2)C(=O)c2ccc3c(c2)CCO3)n1)c1ccccc1 | > 10000 | 158 | 
3 | C[C@H](Nc1nccc(N(CC2CCCCN2)C(=O)c2ccc3c(c2)CCO3)n1)c1ccccc1 (stereo partly drawn) |  | > 10000 | 
4 | C[C@H](Nc1nccc(N(CCCCN)C(=O)c2ccc3c(c2)CCO3)n1)c1ccccc1 | 9 | 4 | 180
5 | C[C@H](Nc1nccc(N(CCCN)C(=O)c2ccc3c(c2)CCO3)n1)c1ccccc1 |  | > 10000 | 
6 | CCN(C(=O)c1ccc2c(c1)CCC2)c1ccnc(N[C@@H](C)c2ccccc2)n1 | 300 | 45 | 
7 | COCCN(C(=O)c1ccc2c(c1)CCO2)c1ccnc(N[C@@H](C)c2ccccc2)n1 | > 10000 | 345 | 
8 | CCN(C(=O)c1ccc2occc2c1)c1ccnc(N[C@@H](C)c2ccccc2)n1 | 313 | 71 | 
9 | CCN(C(=O)c1ccc(Cl)cc1)c1ccnc(N[C@@H](C)c2ccccc2)n1 | > 10000 | 313 | 
10 | CCN(C(=O)c1csc2ccccc12)c1ccnc(N[C@@H](C)c2ccccc2)n1 | > 1000 | 188 | 
11 | C[C@H](Nc1nccc(N(CC2CCN(C(N)=O)CC2)C(=O)c2ccc3c(c2)CCO3)n1)c1ccccc1 | 524 | 711 | 
12 | C[C@H](Nc1nccc(N(CCCS(C)(=O)=O)C(=O)c2ccc3c(c2)CCO3)n1)c1ccccc1 | 564 | 72 | 
13 | CCN(C(=O)c1cc(C)ccc1F)c1ccnc(N[C@@H](C)c2ccccc2)n1 | 58 | 26 | 
14 | C[C@H](Nc1nccc(N(CC2CCN(S(N)(=O)=O)CC2)C(=O)c2ccc3c(c2)CCO3)n1)c1ccccc1 | > 10000 | 673 | 
15 | CCN(C(=O)c1ccc2c(c1)OCO2)c1ccnc(N[C@@H](C)c2ccccc2)n1 | > 1000 | 164 | 
16 | CCc1cccc(C(=O)N(CC)c2ccnc(N[C@@H](C)c3ccccc3)n2)c1 | 152 | 65 | 
17 | COC[C@H](C)Nc1nccc(N(CCCCN)C(=O)c2ccc3c(c2)CCO3)n1 | 48 | 25 | 2650
18 | CCN(C(=O)c1cn(C)c2ccccc12)c1ccnc(N[C@@H](C)c2ccccc2)n1 | > 10000 | 154 | 
19 | O=C(c1ccc2c(c1)CCO2)N(CC1CCNCC1)c1ccnc(NC2CCC(O)CC2)n1 (stereo not drawn) | 3290 | 360 | > 20000
20 | CC(C)CN(C(=O)c1ccc2c(c1)CCO2)c1ccnc(N[C@@H](C)c2ccccc2)n1 | 2090 | 462 | 
21 | CCN(C(=O)c1cccc(C)c1)c1ccnc(N[C@@H](C)c2ccccc2)n1 | 140 | 13 | 
22 | CCN(C(=O)c1cccc(C2CC2)c1)c1ccnc(N[C@@H](C)c2ccccc2)n1 | 349 | 104 | 
23 | CC(C)Nc1nccc(N(CC2CCNCC2)C(=O)c2ccc3c(c2)CCO3)n1 | 88 | 24 | 2900
24 | CCN(C(=O)c1cc2ccccc2o1)c1ccnc(N[C@@H](C)c2ccccc2)n1 | > 10000 | 179 | 

Row | SMILES | IC50 [1] [nM] | IC50 [2] [nM] | IC50 [3] [nM]
25 | CCN(C(=O)c1cccc2c1OCC2)c1ccnc(N[C@@H](C)c2ccccc2)n1 | 829 | 90 | 
26 | CCN(C(=O)c1ccc2ccccc2c1)c1ccnc(N[C@@H](C)c2ccccc2)c1 | > 1000 |  | 
27 | C[C@H](Nc1nccc(N(CC2CC2)C(=O)c2ccc3c(c2)CCO3)n1)c1ccccc1 | 704 | 165 | 
28 | COC[C@H](C)Nc1nccc(N(CC2CCNCC2)C(=O)c2ccc3c(c2)CCO3)n1 | 460 | 316 | 2020
29 | NCCCCN(C(=O)c1ccc2c(c1)CCO2)c1ccnc(NC2CCC(O)CC2)n1 (stereo not drawn) | 865 | 11 | > 20000
30 | CCC(COC)Nc1nccc(N(CC2CCNCC2)C(=O)c2ccc3c(c2)CCO3)n1 (stereo not drawn) | 112 | 530 | 367
31 | CCN(C(=O)c1ccc2c(c1)CCO2)c1ccnc(N[C@@H](C)c2ccccc2)n1 | 387 | 17 | 
32 | CCN(C(=O)c1cccc(Cl)c1)c1ccnc(N[C@@H](C)c2ccccc2)n1 | 533 | 81 | 
33 | O=C(c1ccc2c(c1)CCO2)N(CC1CCNCC1)c1ccnc(NC2CC2)n1 | 50 | 600 | 340
34 | CCN(C(=O)c1ccccc1)c1ccnc(N[C@@H](C)c2ccccc2)n1 | > 10000 | 193 | 
35 | C[C@H](Nc1nccc(N(CCCCO)C(=O)c2ccc3c(c2)CCO3)n1)c1ccccc1 | 130 | 96 | 
36 | CCN(C(=O)c1cccc(C)c1C)c1ccnc(N[C@@H](C)c2ccccc2)n1 | 400 | 81 | 
37 | NC1CCC(Nc2nccc(N(CC3CCNCC3)C(=O)c3ccc4c(c3)CCO4)n2)CC1 (stereo not drawn) | > 10000 | 400 | > 20000
38 | C[C@H](Nc1nccc(N(CC2CCCNC2)C(=O)c2ccc3c(c2)CCO3)n1)c1ccccc1 (stereo partly drawn) |  | > 10000 | 
39 | CC(C)(CO)Nc1nccc(N(CC2CCNCC2)C(=O)c2ccc3c(c2)CCO3)n1 | > 10000 | 3040 | 1540
40 | CCN(C(=O)c1cccc(C(F)(F)F)c1)c1ccnc(N[C@@H](C)c2ccccc2)n1 | > 1000 | 64 | 
41 | C[C@@H](CO)Nc1nccc(N(CCCCN)C(=O)c2ccc3c(c2)CCO3)n1 | 2940 | 310 | 11700
42 | C[C@H](Nc1nccc(N(CC2CCNCC2)C(=O)c2ccc3c(c2)CCO3)n1)c1ccccc1 | 15 | 54 | 94
43 | CCN(C(=O)c1ccccc1Cl)c1ccnc(N[C@@H](C)c2ccccc2)n1 | > 1000 | 267 | 
44 | CCN(C(=O)c1ccc2ccccc2c1)c1ccnc(N[C@@H](C)c2ccccc2)n1 | 187 | 64 | 
45 | CCN(C(=O)c1ccc(C)c(C)c1)c1ccnc(N[C@@H](C)c2ccccc2)n1 | 143 | 91 | 
46 | CC(C)Nc1nccc(N(CCCCN)C(=O)c2ccc3c(c2)CCO3)n1 | 90 | 17 | 3120
47 | CCN(C(=O)c1ccc(F)c(C)c1)c1ccnc(N[C@@H](C)c2ccccc2)n1 | 178 | 39 | 
